Consider three molecules from US12358899B2, “Thyroid hormone receptor agonists and uses thereof” (XIZANG HAISCO PHARMACEUTICAL CO., LTD., priority 2018, dated 2025).

Broadly, the IC50 is the concentration that gives 50% inhibition.

Data set [1] concerns C57BL/6cnc mice. As to the kind of experiment: Synergistic effect of Example 7 with other NASH compounds in mouse model. Format: in vivo. The settings on record: NASH mice, single agents, 2-week treatment. From the text: There are other candidates being developped for inflammation, metabolism syndromes or NASH These include glucagon-like peptide-1 (GLP-1) receptor agonist liraglutide, peroxisome proliferator-activated receptor-α and -β (PPAR-α/δ) agonist elafibranor, and nuclear erythroid 2-related factor 2 (NRF2) activator bardoxolone methyl (CDDO-Me). These candidates target different proteins and pathways, therefore have different mechanisms of action related to steatosis, inflammation, and fibrosis.
C57BL/6cnc mice were fed with high-fat diet containing 60 kacl % fat and 0.10% methionine (no added choline) (Research Diets, A06071302) for 12 weeks to induce NASH model. After 12-week diet induction, the mice had increased plasma levels of TC, LDL-c, ALT, and fibrosis markers. […] An Example 7 alone group and a vehicle group were also set up for controls. […] After 2-week treatment, serum biochemistry was measured; liver was collected to measure liver TC and TG. Livers were punched in 2 mm diameter and fixed, sectioned and stained with Sirius Red, and the fibrosis and steatosis were scored.

Data set [2] addresses T1, THRβ-LBD (Homo sapiens, UniProt P10828).
T1 sequence (P10828 217-461 limits assumed): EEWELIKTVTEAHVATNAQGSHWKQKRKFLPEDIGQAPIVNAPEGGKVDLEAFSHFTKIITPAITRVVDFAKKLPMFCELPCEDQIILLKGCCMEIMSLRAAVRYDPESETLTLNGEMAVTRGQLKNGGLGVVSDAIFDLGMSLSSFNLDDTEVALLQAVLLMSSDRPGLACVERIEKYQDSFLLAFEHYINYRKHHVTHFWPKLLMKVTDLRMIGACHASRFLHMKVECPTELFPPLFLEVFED
Procedure: (§3) The coactivator recruitment assay was performed using LanthaScreen™ TR-FRET TR coactivator assay kit (ThermoFisher). […] THRβ-LBD (ligand binding domain) or THRα-LBD was added to test compounds at a final concentration of 2.5 nM followed by addition of a mixture of the fluorescein-coactivator peptide and terbium-conjugated anti-GST antibody. The diluted test compounds were mixed with the same volume of other reagents (10 μl:10 μl). After 2-hour incubation period at room temperature, the plate was read at wavelengths of 520 nm and 495 nm using Envison plate reader (PerkinElmer). […] In addition, the selectivity for each compound was normalized for the selectivity of T3 run in the same assay.

A further data set concerns the target T2, CYP 2C8 (Homo sapiens, UniProt P10632).
T2 construct: from tissue; host or cells: human liver microsomes
T2 sequence (P10632 1-490): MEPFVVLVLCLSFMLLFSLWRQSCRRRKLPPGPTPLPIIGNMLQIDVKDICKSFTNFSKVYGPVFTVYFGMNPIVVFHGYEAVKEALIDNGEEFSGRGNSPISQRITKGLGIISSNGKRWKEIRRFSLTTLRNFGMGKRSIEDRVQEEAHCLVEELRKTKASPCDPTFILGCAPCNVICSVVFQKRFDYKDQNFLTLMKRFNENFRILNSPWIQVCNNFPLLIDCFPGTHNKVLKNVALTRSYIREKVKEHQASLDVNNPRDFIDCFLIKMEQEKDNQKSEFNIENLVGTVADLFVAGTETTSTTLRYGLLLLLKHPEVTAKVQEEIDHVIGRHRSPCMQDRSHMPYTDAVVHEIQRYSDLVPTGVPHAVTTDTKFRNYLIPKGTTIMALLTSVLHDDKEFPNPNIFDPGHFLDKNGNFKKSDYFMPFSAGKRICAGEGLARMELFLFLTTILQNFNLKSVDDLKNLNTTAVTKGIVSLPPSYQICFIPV
As to the kind of experiment: CYP inhibition in human liver microsome, 2C8. Format: in vitro ADME. The conditions noted are these: human liver microsomes, substrate amodiaquine, top 50 μM; read-out: CYP450 inhibition IC50 2C8. As for the experimental part: (§1) Test compounds were evaluated for CYP inhibition using human liver microsomes (HLM). Test compounds were 1:3 serially diluted starting at 50 μM to generate 7 different concentrations. After incubation of diluted test compounds with HLM, a substrate cocktail composed of phenacetin (10 uM), amodiaquine (2 uM), diclofenac (5 uM), s-mephenytoin (30 uM), dextromethorphan (5 uM), and midazolam (2 uM) was added to check the remaining CYP activity for CYP 1A2, 2C8, 2C9, 2C19, 2D6 and 3A4. The CYP activity was measured by detecting the peak area of individual metabolites of know CYP substrates using LC/MS/MS. A percentage of inhibition of CYP was calculated at each final concentration of test compound, through which an IC50 was fitted to represent the inhibition potential.
For orientation: Microsomes from liver hold many membrane-bound enzymes, among them those of drug oxidation.

Another data set deals with T3, CYP 1A2 (Homo sapiens, UniProt P05177).
T3 construct: from tissue; host or cells: human liver microsomes
T3 sequence (P05177 1-516): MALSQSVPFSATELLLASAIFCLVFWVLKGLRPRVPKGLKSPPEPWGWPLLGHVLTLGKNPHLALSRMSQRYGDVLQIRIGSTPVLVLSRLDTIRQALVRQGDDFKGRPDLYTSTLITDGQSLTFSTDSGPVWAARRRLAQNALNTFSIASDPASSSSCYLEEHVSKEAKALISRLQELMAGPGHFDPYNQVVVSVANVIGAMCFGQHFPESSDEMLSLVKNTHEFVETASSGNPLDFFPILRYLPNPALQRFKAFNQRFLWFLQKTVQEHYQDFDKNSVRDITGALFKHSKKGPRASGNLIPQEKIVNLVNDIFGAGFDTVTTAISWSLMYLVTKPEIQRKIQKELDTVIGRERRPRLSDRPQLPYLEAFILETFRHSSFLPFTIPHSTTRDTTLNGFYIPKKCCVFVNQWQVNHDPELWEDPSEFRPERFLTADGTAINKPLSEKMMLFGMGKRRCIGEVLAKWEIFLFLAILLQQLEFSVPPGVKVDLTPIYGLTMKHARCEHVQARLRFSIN
Kind of data set: CYP inhibition in human liver microsome, 1A2. The conditions noted are these: human liver microsomes, substrate phenacetin, top 50 μM; read-out: CYP450 inhibition IC50 1A2. Type of data set: in vitro ADME. As for the experimental part: as §1

The next data set has as its target T4, CYP 3A4 (Homo sapiens, UniProt P08684).
T4 construct: from tissue; host or cells: human liver microsomes
As to the kind of experiment: CYP inhibition in human liver microsome, 3A4. The settings on record: human liver microsomes, substrate midazolam, top 50 μM; read-out: CYP450 inhibition IC50 3A4. Format: in vitro ADME. As for the experimental part:
as §1

A further data set has as its target T5, CYP 2C19 (Homo sapiens, UniProt P33261).
T5 construct: from tissue; host or cells: human liver microsomes
Kind of data set: CYP inhibition in human liver microsome, 2C19. Type of data set: in vitro ADME. The conditions noted are these: human liver microsomes, substrate s-mephenytoin, top 50 μM; read-out: CYP450 inhibition IC50 2C19. As for the experimental part: as §1

Data set [3] deals with C57BL/6cnc mice. As to the kind of experiment: Cholesterol-lowering efficacy in high cholesterol diet-induced hypercholesterolemia mouse model. Format: in vivo. As for the experimental part: To further confirm the PD effects of compounds, another diet induced NAFLD mouse model was used. C57BL/6cnc mice were fed with the diet containing 1.5% cholesterol and 0.5% cholic acid (Research Diets, D12109C) for 2 weeks prior to the initiation of treatment. The cholesterol lowering efficacy of compounds disclosed herein was tested in two separate studies. […] Thyroid hormone T3 (0.1 mg/kg, intraperitoneal injection) was evaluated as a positive control in the second study. The treatment lasted two weeks with daily oral gavage. Blood samples were taken at the end of study for plasma cholesterol and LDL-c detection. At the end of study, the liver tissues were taken for measurement of the hepatic cholesterol levels. DIO1 is a THRβ target gene in liver, and its mRNA level reflects the activity of THRO. Therefore, the expression of DIO1 was also quantitated in liver tissue by qPCR to examine the target engagement by these compounds. The compound concentration was quantified in blood, liver and heart.

A further data set has as its target T6, CYP 2D6 (Homo sapiens, UniProt P10635).
T6 construct: from tissue; host or cells: human liver microsomes
Kind of data set: CYP inhibition in human liver microsome, 2D6. Type of data set: in vitro ADME. The conditions noted are these: human liver microsomes, substrate dextromethorphan, top 50 μM; read-out: CYP450 inhibition IC50 2D6. As for the experimental part:
as §1

The target in data set [4] is T1, THRβ-LBD. Kind of data set: THR coactivator recruitment assay (LanthaScreen TR-FRET), THRβ. (Time-resolved FRET reads energy transfer from a long-lived donor to a nearby acceptor.)
Procedure: as §3
Data set [5] has as its system C57BL/6cnc mice. Kind of data set: Cholesterol-lowering efficacy in trans-fat AMLN diet-induced hypercholesterolemia mouse model. Format: in vivo. The conditions noted are these: AMLN diet mice, daily oral gavage 2 weeks, 0.3-3 mg/kg (Example 7) or 1 and 3 mg/kg. As for the experimental part:
C57BL/6cnc mice were fed with AMVLN diet containing 40 Kcal % Fat, 20 Kcal % Fructose and 2% Cholesterol (Research Diets, D09100301) for 5 weeks to induce hypercholesterolemia. The cholesterol lowering efficacy of compounds disclosed herein were tested in two separate studies. […] Thyroid hormone T3 (0.1 mg/kg, intraperitoneal injection) was evaluated as a positive control in both studies. The treatment lasted two weeks with daily oral gavage. Blood samples were taken before the dosing on the first day and again at the end of study for detection of plasma cholesterol (TC), triglycerides (TG) and LDL-c. […] At the end of study, the liver tissues were taken for measuring the hepatic TC and TG levels. The compound concentration was quantified in blood, liver and heart.

The next data set deals with T7, CYP 2C9 (Homo sapiens, UniProt P11712).
T7 construct: from tissue; host or cells: human liver microsomes
Kind of data set: CYP inhibition in human liver microsome, 2C9. Format: in vitro ADME. The conditions noted are these: human liver microsomes, substrate diclofenac, top 50 μM; read-out: CYP450 inhibition IC50 2C9. As for the experimental part:
as §1

The target of a further data set is T8, THRα-LBD (Homo sapiens, UniProt P10827).
T8 construct: purchased ThermoFisher
As to the kind of experiment: THR coactivator recruitment assay (LanthaScreen TR-FRET), THRα. Format: biochemical.

The test system of another data set is α-MHC. As to the kind of experiment: Heart safety evaluation in hypothyroid rat: cardiac α-MHC expression. Format: in vivo. The conditions noted are these: intraperitoneal, 37.5 mg/kg (T3 0.1 mg/kg), heart tissue after 6 hours. As for the experimental part: (§2) SD Rats underwent thyroidectomy and recovered for 10 days. T3 and T4 were tested to confirm the complete thyroidectomy. […] Note that the dose for these compounds was […] higher than their therapeutic dose (1 mg/kg by oral gavage) in mouse models. For comparison, thyroid hormone T3 was also tested at 0.1 mg/kg with intraperitoneal injection. […] After 6 hours, the heart tissues were collected to quantitate the expression of α-MHC, a thyroid hormone responsive and THRα-target gene in heart.

A further data set concerns Thyroidectomized rats. As to the kind of experiment: Heart safety evaluation in hypothyroid rat: heart rate. Format: in vivo. The conditions noted are these: 0.1 mg/kg intraperitoneal injection, first 30 minutes. As for the experimental part:
as §2

Setting [6] is: high cholesterol diet mice, 0.3, 1, 3 mg/kg daily oral gavage, 2-week treatment.
[7] abbreviates: maximum activity relative to the maximum activity of 500 nM T3.

T8 sequence (P10827 163-410 isoform P10827-2 limits assumed, other chains not shown): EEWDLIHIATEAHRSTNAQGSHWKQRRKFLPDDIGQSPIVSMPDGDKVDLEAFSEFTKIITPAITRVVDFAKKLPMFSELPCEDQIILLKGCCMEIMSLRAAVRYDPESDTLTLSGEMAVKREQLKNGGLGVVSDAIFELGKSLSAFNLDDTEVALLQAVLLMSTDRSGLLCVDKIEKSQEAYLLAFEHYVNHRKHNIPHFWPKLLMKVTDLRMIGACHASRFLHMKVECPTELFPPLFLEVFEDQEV
T5 sequence (P33261 whole entry): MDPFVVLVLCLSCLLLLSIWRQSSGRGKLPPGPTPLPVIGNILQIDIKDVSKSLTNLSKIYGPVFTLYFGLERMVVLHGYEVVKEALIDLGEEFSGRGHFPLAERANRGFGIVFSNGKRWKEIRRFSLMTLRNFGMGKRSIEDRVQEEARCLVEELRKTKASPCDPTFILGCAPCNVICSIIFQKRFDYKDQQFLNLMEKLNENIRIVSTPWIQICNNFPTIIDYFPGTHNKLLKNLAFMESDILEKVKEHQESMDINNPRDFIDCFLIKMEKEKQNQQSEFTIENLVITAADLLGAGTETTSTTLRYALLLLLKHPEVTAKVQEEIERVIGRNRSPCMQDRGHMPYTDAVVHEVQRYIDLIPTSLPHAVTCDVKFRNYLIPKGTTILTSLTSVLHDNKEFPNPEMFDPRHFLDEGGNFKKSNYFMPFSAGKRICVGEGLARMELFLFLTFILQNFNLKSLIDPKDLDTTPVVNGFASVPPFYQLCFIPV
T6 sequence (P10635 whole entry): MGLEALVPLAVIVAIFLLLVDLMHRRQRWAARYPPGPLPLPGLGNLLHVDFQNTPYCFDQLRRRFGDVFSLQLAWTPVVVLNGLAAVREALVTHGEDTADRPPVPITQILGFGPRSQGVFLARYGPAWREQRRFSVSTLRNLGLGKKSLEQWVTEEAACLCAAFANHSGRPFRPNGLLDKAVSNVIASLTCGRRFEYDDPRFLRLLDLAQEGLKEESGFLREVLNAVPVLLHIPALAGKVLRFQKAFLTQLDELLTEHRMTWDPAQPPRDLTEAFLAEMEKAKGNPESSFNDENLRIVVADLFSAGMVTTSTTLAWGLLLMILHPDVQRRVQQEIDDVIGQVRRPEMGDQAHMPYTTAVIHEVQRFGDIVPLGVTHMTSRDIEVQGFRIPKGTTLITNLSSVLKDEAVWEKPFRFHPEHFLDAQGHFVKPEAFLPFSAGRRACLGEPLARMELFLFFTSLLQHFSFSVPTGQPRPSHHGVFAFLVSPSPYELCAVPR
T7 sequence (P11712 whole entry): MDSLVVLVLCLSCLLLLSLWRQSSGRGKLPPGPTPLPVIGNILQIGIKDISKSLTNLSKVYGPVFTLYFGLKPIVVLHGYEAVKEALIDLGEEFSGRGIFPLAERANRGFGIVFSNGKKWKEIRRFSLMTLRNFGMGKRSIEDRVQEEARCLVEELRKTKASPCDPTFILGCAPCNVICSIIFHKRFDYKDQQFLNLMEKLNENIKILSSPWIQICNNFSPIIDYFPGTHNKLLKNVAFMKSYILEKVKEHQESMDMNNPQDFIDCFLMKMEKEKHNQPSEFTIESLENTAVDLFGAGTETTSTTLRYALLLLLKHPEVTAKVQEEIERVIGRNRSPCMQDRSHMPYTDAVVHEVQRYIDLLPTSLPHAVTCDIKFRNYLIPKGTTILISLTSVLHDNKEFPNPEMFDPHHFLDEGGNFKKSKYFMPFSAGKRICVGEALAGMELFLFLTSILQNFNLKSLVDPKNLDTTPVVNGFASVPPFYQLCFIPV
T4 sequence (P08684 whole entry): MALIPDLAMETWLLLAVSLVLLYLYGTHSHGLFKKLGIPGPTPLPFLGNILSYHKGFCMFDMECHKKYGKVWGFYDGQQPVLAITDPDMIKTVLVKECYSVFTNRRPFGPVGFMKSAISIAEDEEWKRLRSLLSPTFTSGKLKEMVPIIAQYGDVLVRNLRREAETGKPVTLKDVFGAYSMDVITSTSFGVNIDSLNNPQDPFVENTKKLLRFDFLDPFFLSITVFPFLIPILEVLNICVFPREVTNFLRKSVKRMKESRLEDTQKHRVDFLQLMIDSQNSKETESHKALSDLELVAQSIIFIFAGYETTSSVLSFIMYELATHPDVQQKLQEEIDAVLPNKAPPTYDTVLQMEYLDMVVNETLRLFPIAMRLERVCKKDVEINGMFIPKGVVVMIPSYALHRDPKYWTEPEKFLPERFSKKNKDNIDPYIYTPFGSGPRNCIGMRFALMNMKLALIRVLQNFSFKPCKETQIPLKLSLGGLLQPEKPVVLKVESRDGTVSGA
Procedure for THRα-LBD: The coactivator recruitment assay was performed using LanthaScreen™ TR-FRET TR coactivator assay kit (ThermoFisher). […] The diluted test compounds were mixed with the same volume of other reagents (10 μl:10 μl). […] In addition, the selectivity for each compound was normalized for the selectivity of T3 run in the same assay.

Turning to `CSc1ccc(C(=O)/C=C/c2cc(C)c(OC(C)(C)C(=O)O)c(C)c2)cc1` [Elafibranor, reference compound], the “liver weight, liver TC, liver TG, plasma TC, LDL-c, ALT, fibrosis, steatosis” value in the data set on C57BL/6cnc mice [1] is listed as “reduced all or some of these parameters”.

`[2H]c1c(C)c(Oc2cc(C(C([2H])([2H])[2H])C([2H])([2H])[2H])c(=O)[nH]n2)c(Cl)c([2H])c1-n1nc(C#N)c(=O)[nH]c1=O` [Example 50, 2-(3-chloro-5-methyl-4-((6-oxo-5-(propan-2-yl-1,1,1,3,3,3-d6)-1,6-dihydropyridazin-3-yl)oxy)phenyl-2,6-d2)-3,5-dioxo-2,3,4,5-tetrahydro-1,2,4-triazine-6-carbonitrile]: the selectivity ratio at THRβ-LBD [2] stood at 13.5. The IC50 is 4.19 µM on CYP 2C8; above 50 µM on CYP 1A2; above 50 µM on CYP 3A4; above 50 µM on CYP 2C19; above 50 µM at CYP 2D6; 41.4 µM on CYP 2C9. In addition, the “compound concentration in heart” value in the data set on C57BL/6cnc mice [3] (at end of study, high cholesterol diet mice) is recorded as “not detectable”. Moreover, the “blood and liver distribution” value with C57BL/6cnc mice [3] (compound concentration at end of study, high cholesterol diet mice) was “similar”. Moreover, the “efficacy in reducing liver cholesterol compared with MGL-3196” value in the data set with C57BL/6cnc mice [3] (high cholesterol diet mice) is “as effective as MGL-3196”. In addition, the LDL-c entry in the data set with C57BL/6cnc mice [3] (setting [6]) is on record as “reduced”; with C57BL/6cnc mice [5], “significantly reduced”. Besides, the results for the “plasma TC” value with C57BL/6cnc mice [3] (setting [6]) and with C57BL/6cnc mice [5] were “reduced” and “significantly reduced”, respectively. Besides, the “expression of DIO1 in liver” value with C57BL/6cnc mice [3] (qPCR, mRNA of THRβ target gene, high cholesterol diet mice) was “dose-dependently upregulated”. Moreover, the EC50 at THRβ-LBD [4] lay in the range of 0.1 to 1 µM; at THRα-LBD (EC50 class from TR-FRET ratio 520:495 dose response, read-out: THRα binding), 1 to 10 µM. Also, the “THRβ Bmax % (vs T3)” value on THRβ-LBD [4] (setting [7]) is reported as 51%. Moreover, the “liver TC” value in the data set on C57BL/6cnc mice [5] is “significantly reduced”. The “THRα Bmax % (vs T3)” value at THRα-LBD (setting [7]) is reported as 36%.

With `N[C@@H](Cc1cc(I)c(Oc2ccc(O)c(I)c2)c(I)c1)C(=O)O` [Example T3, 3,5,3′-triiodo-L-thyronine, reference compound], the “expression of cardiac α-MHC” value in the data set with α-MHC is “responsive”. For the same molecule, the heart rate increase in the data set with Thyroidectomized rats is on record as 30%.
